Results taken from ChEMBL document CHEMBL5329212, “In situ click chemistry-based discovery of 1,2,3-triazole-derived diarylpyrimidines as novel HIV-1 NNRTIs by exploiting the tolerant region I in binding pocket” (Bioorg Med Chem, 2023).

Experiments:
[1] = biological target: Human immunodeficiency virus type 1 reverse transcriptase (Human immunodeficiency virus 1) (UniProt Q72547); experiment: Inhibition of HIV-1 reverse transcriptase at 0.267 uM incubated for 1 hrs in presence of biotin-labeled dNTPs by ELISA assay relative to control
[2] = system: Human immunodeficiency virus 1; experiment: Antiviral activity against wild type HIV-1 IIIB infected in human MT4 cells assessed as protection against virus-induced cytopathic effect measured after 5 days by MTT assay; type: functional, organism-based; settings: Human immunodeficiency virus 1, IIIB, MT4, 120 h
[3] = Cytotoxicity against human MT4 cells assessed as reduction in cell viability measured after 5 days by MTT assay; type: toxicity, cell-based; settings: time 5 day
[4] = system: Human immunodeficiency virus 1; experiment: Antiviral activity against HIV-1 harboring RT F227L/V106A double mutant infected in human MT4 cells assessed as protection against virus-induced cytopathic effect measured after 5 days by MTT assay; type: functional, organism-based; settings: Human immunodeficiency virus 1, MT4, 120 h
[5] = system: Human immunodeficiency virus 1; experiment: Antiviral activity against HIV-1 harboring RT RES056 mutant infected in human MT4 cells assessed as protection against virus-induced cytopathic effect measured after 5 days by MTT assay; type: functional, organism-based; settings: Human immunodeficiency virus 1, MT4, 120 h
[6] = system: Human immunodeficiency virus 1; experiment: Antiviral activity against HIV-1 harboring RT E138K mutant infected in human MT4 cells assessed as protection against virus-induced cytopathic effect measured after 5 days by MTT assay; type: functional, organism-based; settings: Human immunodeficiency virus 1, MT4, 120 h
[7] = system: Human immunodeficiency virus 1; experiment: Antiviral activity against HIV-1 harboring RT K103N mutant infected in human MT4 cells assessed as protection against virus-induced cytopathic effect measured after 5 days by MTT assay; type: functional, organism-based; settings: Human immunodeficiency virus 1, MT4, 120 h
[8] = system: Human immunodeficiency virus 1; experiment: Antiviral activity against HIV-1 harboring RT Y188L mutant infected in human MT4 cells assessed as protection against virus-induced cytopathic effect measured after 5 days by MTT assay; type: functional, organism-based; settings: Human immunodeficiency virus 1, MT4, 120 h
[9] = system: Human immunodeficiency virus 1; experiment: Antiviral activity against HIV-1 harboring RT Y181C mutant infected in human MT4 cells assessed as protection against virus-induced cytopathic effect measured after 5 days by MTT assay; type: functional, organism-based; settings: Human immunodeficiency virus 1, MT4, 120 h
[10] = system: Human immunodeficiency virus 1; experiment: Antiviral activity against HIV-1 harboring RT L100I mutant infected in human MT4 cells assessed as protection against virus-induced cytopathic effect measured after 5 days by MTT assay; type: functional, organism-based; settings: Human immunodeficiency virus 1, MT4, 120 h
[11] = biological target: Human immunodeficiency virus type 1 reverse transcriptase (Human immunodeficiency virus 1, UniProt Q72547); experiment: Inhibition of HIV-1 reverse transcriptase incubated for 1 hrs in presence of biotin-labeled dNTPs by ELISA assay

## Cc1cc(C#N)cc(C)c1Oc1nc(Nc2ccc(-c3cn(CC(=O)NC4CC4)nn3)cc2)nc2ccsc12
[1]
  inhibition: 29.7%

## Cc1ccc(Cn2cc(-c3ccc(Nc4nc(Oc5c(C)cc(C#N)cc5C)c5sccc5n4)cc3)nn2)cc1
[1]
  inhibition: 3.5%

## Cc1cc(C#N)cc(C)c1Oc1nc(Nc2ccc(-c3cn(-c4ccc(CO)cc4)nn3)cc2)nc2ccsc12
[1]
  inhibition: 34.7%

## Cc1cc(C#N)cc(C)c1Oc1nc(Nc2ccc(-c3cn(Cc4ccccc4C#N)nn3)cc2)nc2ccsc12
[1]
  inhibition: 0.2%

## COc1ccccc1Cn1cc(-c2ccc(Nc3nc(Oc4c(C)cc(C#N)cc4C)c4sccc4n3)cc2)nn1
[1]
  inhibition: 3.7%

## COC(=O)CCCn1cc(-c2ccc(Nc3nc(Oc4c(C)cc(C#N)cc4C)c4sccc4n3)cc2)nn1
[1]
  inhibition: 35.3%

## Cc1cc(C#N)cc(C)c1Oc1nc(Nc2ccc(-c3cn(CCc4ccsc4)nn3)cc2)nc2ccsc12
[1]
  inhibition: 1.9%

## Cc1cn([C@H]2C[C@H](N=[N+]=[N-])[C@@H](CO)O2)c(=O)[nH]c1=O [ZIDOVUDINE]
[2]
  EC50: 0.03 µM
[3]
  CC50 at 120 h: > 749 µM
[4]
  EC50: 0.02 µM
[5]
  EC50: 0.03 µM
[6]
  EC50: 0.04 µM
[7]
  EC50: 0.03 µM
[8]
  EC50: 0.03 µM
[9]
  EC50: 0.03 µM

## Cc1cc(C#N)cc(C)c1Oc1nc(Nc2ccc(-c3cn(Cc4ccccc4Cl)nn3)cc2)nc2ccsc12
[1]
  inhibition: 23.1%

## COc1ccc(-n2cc(-c3ccc(Nc4nc(Oc5c(C)cc(C#N)cc5C)c5sccc5n4)cc3)nn2)cc1
[1]
  inhibition: 28%

## Cc1cc(C#N)cc(C)c1Oc1nc(Nc2ccc(-c3cn(Cc4ccccc4[N+](=O)[O-])nn3)cc2)nc2ccsc12
[1]
  inhibition: 24.8%

## Cc1cc(C#N)cc(C)c1Oc1nc(Nc2ccc(-c3cn(CS(=O)(=O)c4ccccc4)nn3)cc2)nc2ccsc12
[1]
  inhibition: 25.6%

## COC(=O)Cn1cc(-c2ccc(Nc3nc(Oc4c(C)cc(C#N)cc4C)c4sccc4n3)cc2)nn1
[1]
  inhibition: 35.7%

## CCOC(=O)c1ccc(Cn2cc(-c3ccc(Nc4nc(Oc5c(C)cc(C#N)cc5C)c5sccc5n4)cc3)nn2)cc1
[2]
  EC50: 0.54 µM
[3]
  CC50 at 120 h: > 208 µM
[10]
  EC50: 34.8 µM
[4]
  EC50: > 208 µM
[5]
  EC50: > 208 µM
[6]
  EC50: 0.78 µM
[7]
  EC50: 0.86 µM
[11]
  IC50: 0.43 µM
[8]
  EC50: > 208 µM
[1]
  inhibition: 60%
[9]
  EC50: 120 µM

## COc1cccc(Cn2cc(-c3ccc(Nc4nc(Oc5c(C)cc(C#N)cc5C)c5sccc5n4)cc3)nn2)c1
[1]
  inhibition: 0.4%

## Cc1cc(C#N)cc(C)c1Oc1nc(Nc2ccc(-c3cn(Cc4ccc(S(N)(=O)=O)cc4)nn3)cc2)nc2ccsc12
[2]
  EC50: 0.03 µM
[3]
  CC50 at 120 h: > 205 µM
[10]
  EC50: 0.99 µM
[4]
  EC50: 3.61 µM
[5]
  EC50: > 205 µM
[6]
  EC50: 0.05 µM
[7]
  EC50: 0.04 µM
[11]
  IC50: 0.19 µM
[8]
  EC50: 3.21 µM
[1]
  inhibition: 46.3%
[9]
  EC50: 2.63 µM

## Cc1cc(C#N)cc(C)c1Oc1nc(Nc2ccc(-c3cn(Cc4cccc5ccccc45)nn3)cc2)nc2ccsc12
[1]
  inhibition: 35.9%

## O=C1Nc2ccc(Cl)cc2[C@@](C#CC2CC2)(C(F)(F)F)O1 [EFAVIRENZ]
[3]
  CC50 at 120 h: > 635 µM
[10]
  EC50: 0.08 µM
[4]
  EC50: 0.5 µM
[5]
  EC50: 0.43 µM
[7]
  EC50: 0.13 µM
[8]
  EC50: 0.43 µM
[9]
  EC50: 0.008 µM

## Cc1cc(C)c(-n2cc(-c3ccc(Nc4nc(Oc5c(C)cc(C#N)cc5C)c5sccc5n4)cc3)nn2)c(C)c1
[1]
  inhibition: 4.9%

## Cc1cc(C#N)cc(C)c1Oc1nc(Nc2ccc(-c3cn(Cc4ccc5ccccc5c4)nn3)cc2)nc2ccsc12
[1]
  inhibition: 1.5%

## Cc1cc(C#N)cc(C)c1Oc1nc(Nc2ccc(-c3cn(CC(=O)Nc4ccc(Br)cc4)nn3)cc2)nc2ccsc12
[1]
  inhibition: 4.1%

## Cc1cc(C#N)cc(C)c1Oc1nc(Nc2ccc(-c3cn(-c4ccc(C(C)(C)C)cc4)nn3)cc2)nc2ccsc12
[1]
  inhibition: 23.9%

## Cc1cc(C#N)cc(C)c1Oc1nc(Nc2ccc(-c3cn(CC(=O)N4CCOCC4)nn3)cc2)nc2ccsc12
[1]
  inhibition: 21.8%

## Cc1cc(C#N)cc(C)c1Oc1nc(Nc2ccc(-c3cn(Cc4ccc([N+](=O)[O-])cc4)nn3)cc2)nc2ccsc12
[1]
  inhibition: 1.6%

## Cc1cc(C#N)cc(C)c1Oc1nc(Nc2ccc(-c3cn(CC(=O)N4CCCC4)nn3)cc2)nc2ccsc12
[1]
  inhibition: 12.8%

## Cc1cc(C#N)cc(C)c1Oc1nc(Nc2ccc(-c3cn(-c4ccc5c(c4)OCO5)nn3)cc2)nc2ccsc12
[2]
  EC50: 1.8 µM
[3]
  CC50 at 120 h: > 223 µM
[10]
  EC50: 10.9 µM
[4]
  EC50: 77.8 µM
[5]
  EC50: > 223 µM
[6]
  EC50: 7.17 µM
[7]
  EC50: 2.01 µM
[11]
  IC50: 1.05 µM
[8]
  EC50: 165 µM
[1]
  inhibition: 50%
[9]
  EC50: 69.4 µM

## Cc1cc(C#N)cc(C)c1Oc1nc(Nc2ccc(-c3cn(C[S+]([O-])c4ccccc4)nn3)cc2)nc2ccsc12 (configuration not stated)
[1]
  inhibition: 24.9%

## Cc1cc(C#N)cc(C)c1Oc1nc(Nc2ccc(-c3cn(CCN4C(=O)c5ccccc5C4=O)nn3)cc2)nc2ccsc12
[2]
  EC50: 1.85 µM
[3]
  CC50 at 120 h: > 204 µM
[10]
  EC50: 3.2 µM
[4]
  EC50: 124 µM
[5]
  EC50: > 204 µM
[6]
  EC50: 13.8 µM
[7]
  EC50: 2.11 µM
[11]
  IC50: 3.36 µM
[8]
  EC50: ≥ 157 µM
[1]
  inhibition: 46.2%
[9]
  EC50: 45.7 µM

## CCOC(=O)Cn1cc(-c2ccc(Nc3nc(Oc4c(C)cc(C#N)cc4C)c4sccc4n3)cc2)nn1
[1]
  inhibition: 31.2%

## Cc1cc(C#N)cc(C)c1Oc1nc(Nc2ccc(-c3cn(Cc4cccc(C#N)c4)nn3)cc2)nc2ccsc12
[1]
  inhibition: 24.7%

## Cc1cc(C#N)cc(C)c1Oc1nc(Nc2ccc(-c3cn(-c4cnc5ccccc5c4)nn3)cc2)nc2ccsc12
[1]
  inhibition: 20%

## Cc1cc(C#N)cc(C)c1Oc1nc(Nc2ccc(-c3cn(CCc4ccccc4)nn3)cc2)nc2ccsc12
[1]
  inhibition: 27.1%

## Cc1cc(C#N)cc(C)c1Oc1nc(Nc2ccc(-c3cn(Cc4cccc([N+](=O)[O-])c4)nn3)cc2)nc2ccsc12
[1]
  inhibition: 0.9%

## Cc1cc(C#N)cc(C)c1Oc1nc(Nc2ccc(-c3cn(-c4ccc(C(=O)O)cc4Cl)nn3)cc2)nc2ccsc12
[1]
  inhibition: 17.3%

## Cc1cc(C#N)cc(C)c1Oc1nc(Nc2ccc(C#N)cc2)nc(N)c1Br [ETRAVIRINE]
[3]
  CC50 at 120 h: > 461 µM
[10]
  EC50: 0.01 µM
[4]
  EC50: 0.03 µM
[5]
  EC50: 0.07 µM
[6]
  EC50: 0.02 µM
[7]
  EC50: 0.004 µM
[1]
  inhibition: 56.4%

## Cc1cccc(Cn2cc(-c3ccc(Nc4nc(Oc5c(C)cc(C#N)cc5C)c5sccc5n4)cc3)nn2)c1
[1]
  inhibition: 21%

## Cc1cc(C#N)cc(C)c1Oc1nc(Nc2ccc(-c3cn([C@H]4C[C@@H](n5cc(C)c(=O)[nH]c5=O)O[C@@H]4CO)nn3)cc2)nc2ccsc12
[1]
  inhibition: 24.8%

## Cc1cc(C#N)cc(C)c1Oc1nc(Nc2ccc(-c3cn(CC(=O)Nc4ccc(S(C)(=O)=O)cc4)nn3)cc2)nc2ccsc12
[1]
  inhibition: 23.4%

## Cc1cc(C#N)cc(C)c1Oc1nc(Nc2ccc(-c3cn(Cc4cccc(Cl)c4)nn3)cc2)nc2ccsc12
[1]
  inhibition: 28.4%

## Cc1cc(C#N)cc(C)c1Oc1nc(Nc2ccc(-c3cn(-c4ccc(C(=O)O)cc4)nn3)cc2)nc2ccsc12
[1]
  inhibition: 38.2%

## Cc1ccccc1Cn1cc(-c2ccc(Nc3nc(Oc4c(C)cc(C#N)cc4C)c4sccc4n3)cc2)nn1
[1]
  inhibition: 33.3%

## Cc1ccnc2c1NC(=O)c1cccnc1N2C1CC1 [NEVIRAPINE]
[2]
  EC50: 0.1 µM
[3]
  CC50 at 120 h: > 951 µM
[10]
  EC50: 1.45 µM
[4]
  EC50: > 951 µM
[5]
  EC50: > 951 µM
[6]
  EC50: 0.13 µM
[7]
  EC50: 4.93 µM
[8]
  EC50: > 951 µM
[9]
  EC50: 5.66 µM

## Cc1cc(C#N)cc(C)c1Oc1nc(Nc2ccc(-c3cn(Cc4ccc(C#N)cc4)nn3)cc2)nc2ccsc12
[1]
  inhibition: 36.9%

## Cc1cc(C#N)cc(C)c1Oc1nc(Nc2ccc(-c3cn(-c4cc5ccccc5s4)nn3)cc2)nc2ccsc12
[1]
  inhibition: 0.1%

## Cc1cc(C#N)cc(C)c1Oc1nc(Nc2ccc(-c3cn(CSc4ccccc4)nn3)cc2)nc2ccsc12
[1]
  inhibition: 31.9%
